Results published in patent publication US20230146795A1, “ENHANCEMENT OF ANTI-TUMOR ACTIVITY OF SHP2 INHIBITOR PYRIMIDINONE IN COMBINATION WITH NOVEL CANCER MEDICINES IN CANCERS” (TAIHO PHARMACEUTICAL CO., LTD., priority 2020, published 2023).

Assays:
Type in all cases: cell-based
MKN45 = experiment: Anti-proliferation assay (CellTiter-Glo 2.0), combination index, MKN45
Protocol: (§1) Cell lines were obtained from ATCC or Health Science Research Resources Bank.
(§2) Each cell lines were collected by ordinary method, then suspended in indicated medium containing 10% fetal bovine serum in table 3. The number of cells seeded per well was set to 500 cells/20 μL. […] The concentration of each anti-cancer reagents set to 8 concentrations including 0 nM. After adding the medicine to the cells, the cells were further incubated at 37° C. for 3 days under 5% CO2. Cell survival rates were calculated by adding 20 μL of CellTiter-Glo(registered trademark) 2. 0 (Promega) solution to each well, incubating the cells at room temperature for 10 minutes, and then measuring the chemiluminescence intensity of each well using a plate reader (ARVO).
(§3) A combination index (CI) value at each combined concentration of the medicines was determined.

RT4 = experiment: Anti-proliferation assay (CellTiter-Glo 2.0), combination index, RT4; conditions: for Description: combination effect
Protocol: as §1, §2, §3

NCI-H358 = experiment: Anti-proliferation assay (CellTiter-Glo 2.0), combination index, NCI-H358; conditions: molar ratio 1:3
Protocol: as §1, §2, §3

[1] = Compound 1 123 + combination drug 3330 nmol/L (1:27)
[2] = Compound 1 370 + combination drug 10000 nmol/L (1:27)
[3] = Compound 1 123 + combination drug 556 nmol/L (1:4.5)
[4] = Compound 1 370 + combination drug 1670 nmol/L (1:4.5)
[5] = Compound 1 1110 + combination drug 5000 nmol/L (1:4.5)
[6] = Compound 1 4.12 nmol/L + Paclitaxel 0.14 nmol/L, molar ratio 1:0.03
[7] = Compound 1 12.3 nmol/L + Paclitaxel 0.41 nmol/L, molar ratio 1:0.03
[8] = Compound 1 37.0 nmol/L + Paclitaxel 1.23 nmol/L, molar ratio 1:0.03
[9] = Compound 1 111 nmol/L + Paclitaxel 3.70 nmol/L, molar ratio 1:0.03
[10] = Compound 1 333 nmol/L + Paclitaxel 11.1 nmol/L, molar ratio 1:0.03
[11] = Compound 1 1000 nmol/L + Paclitaxel 33.3 nmol/L, molar ratio 1:0.03
[12] = Compound 1 12.3 nmol/L + Paclitaxel 1.46 nmol/L, molar ratio 1:0.1
[13] = Compound 1 37.0 nmol/L + Paclitaxel 4.39 nmol/L, molar ratio 1:0.1
[14] = Compound 1 111 nmol/L + Paclitaxel 13.2 nmol/L, molar ratio 1:0.1
[15] = Compound 1 333 nmol/L + Paclitaxel 39.5 nmol/L, molar ratio 1:0.1
[16] = Compound 1 1000 nmol/L + Paclitaxel 119 nmol/L, molar ratio 1:0.1
[17] = Compound 1 37.0 + combination drug 4.12 nmol/L (1:0.1)
[18] = Compound 1 111 + combination drug 12.3 nmol/L (1:0.1)
[19] = Compound 1 333 + combination drug 37.0 nmol/L (1:0.1)
[20] = Compound 1 1.52 nmol/L + Vorinostat 41.2 nmol/L, molar ratio 1:27
[21] = Compound 1 4.57 nmol/L + Vorinostat 123 nmol/L, molar ratio 1:27
[22] = Compound 1 13.7 nmol/L + Vorinostat 370 nmol/L, molar ratio 1:27
[23] = Compound 1 41.2 nmol/L + Vorinostat 1110 nmol/L, molar ratio 1:27
[24] = Compound 1 123 nmol/L + Vorinostat 3330 nmol/L, molar ratio 1:27
[25] = Compound 1 370 nmol/L + Vorinostat 10000 nmol/L, molar ratio 1:27
[26] = Compound 1 1110 nmol/L + Vorinostat 3330 nmol/L
[27] = Compound 1 3330 nmol/L + Vorinostat 10000 nmol/L
[28] = Compound 1 4.57 nmol/L + SN-38 0.69 nmol/L, molar ratio 1:0.1
[29] = Compound 1 13.7 nmol/L + SN-38 2.06 nmol/L, molar ratio 1:0.1
[30] = Compound 1 41.2 nmol/L + SN-38 6.17 nmol/L, molar ratio 1:0.1
[31] = Compound 1 123 nmol/L + SN-38 18.5 nmol/L, molar ratio 1:0.1
[32] = Compound 1 370 nmol/L + SN-38 55.6 nmol/L, molar ratio 1:0.1
[33] = Compound 1 1110 nmol/L + SN-38 167 nmol/L, molar ratio 1:0.1
[34] = Compound 1 3330 nmol/L + SN-38 500 nmol/L, molar ratio 1:0.1
[35] = Compound 1 41.2 nmol/L + SN-38 2.06 nmol/L, molar ratio 1:0.05
[36] = Compound 1 123 nmol/L + SN-38 6.17 nmol/L, molar ratio 1:0.05
[37] = Compound 1 370 nmol/L + SN-38 18.5 nmol/L, molar ratio 1:0.05
[38] = Compound 1 1110 nmol/L + SN-38 55.6 nmol/L, molar ratio 1:0.05

Molecule: CS(=O)(=O)CCNCc1ccc(-c2ccc3ncnc(Nc4ccc(OCc5cccc(F)c5)c(Cl)c4)c3c2)o1 [Lapatinib]
- CI (MKN45; [1]): 0.965
- Fa (MKN45; [1]): 0.6048
- CI (MKN45; [2]): 0.497
- Fa (MKN45; [2]): 0.9171
- Description (combinatory effect by CI) (MKN45; Compound 1:combination drug molar ratio 1:27): Synergy (0.3-0.7)

Molecule: CCOc1cc2ncc(C#N)c(Nc3ccc(OCc4ccccn4)c(Cl)c3)c2cc1NC(=O)/C=C/CN(C)C [Neratinib]
- CI (MKN45; [3]): 0.658
- Fa (MKN45; [3]): 0.5592
- CI (MKN45; [4]): 0.336
- Fa (MKN45; [4]): 0.8104
- CI (MKN45; [5]): 0.237
- Fa (MKN45; [5]): 0.9240

Molecule: CC(=O)O[C@H]1C(=O)[C@@]2(C)[C@H]([C@H](OC(=O)c3ccccc3)[C@]3(O)C[C@H](OC(=O)[C@H](O)[C@@H](NC(=O)c4ccccc4)c4ccccc4)C(C)=C1C3(C)C)[C@]1(OC(C)=O)CO[C@@H]1C[C@@H]2O [Paclitaxel]
- CI (RT4; [6]): 0.690
- Fa (RT4; [6]): 0.1066
- CI (RT4; [7]): 0.828
- Fa (RT4; [7]): 0.1742
- CI (RT4; [8]): 0.386
- Fa (RT4; [8]): 0.4157
- CI (RT4; [9]): 0.366
- Fa (RT4; [9]): 0.6114
- CI (RT4; [10]): 0.371
- Fa (RT4; [10]): 0.7739
- CI (RT4; [11]): 0.681
- Fa (RT4; [11]): 0.8306
- Description (RT4; Compound 1 + Paclitaxel, molar ratio 1:0.03): Synergy (0.3-0.7)
- CI (MKN45; [12]): 0.106
- Fa (MKN45; [12]): 0.4372
- CI (MKN45; [13]): 0.222
- Fa (MKN45; [13]): 0.5083
- CI (MKN45; [14]): 0.307
- Fa (MKN45; [14]): 0.6577
- CI (MKN45; [15]): 0.409
- Fa (MKN45; [15]): 0.7864
- CI (MKN45; [16]): 0.957
- Fa (MKN45; [16]): 0.8179

Molecule: CC(=O)Nc1cccc(-n2c(=O)n(C3CC3)c(=O)c3c(Nc4ccc(I)cc4F)n(C)c(=O)c(C)c32)c1 [Trametinib]
- CI (MKN45; [17]): 0.358
- Fa (MKN45; [17]): 0.4047
- CI (MKN45; [18]): 0.389
- Fa (MKN45; [18]): 0.6614
- CI (MKN45; [19]): 0.693
- Fa (MKN45; [19]): 0.7703
- Description (combinatory effect by CI) (MKN45; Compound 1:combination drug molar ratio 1:0.1): Synergy (0.3-0.7)

Molecule: O=C(CCCCCCC(=O)Nc1ccccc1)NO [Vorinostat]
- CI (RT4; [20]): 0.581
- Fa (RT4; [20]): 0.0392
- CI (RT4; [21]): 0.388
- Fa (RT4; [21]): 0.1081
- CI (RT4; [22]): 0.647
- Fa (RT4; [22]): 0.1594
- CI (RT4; [23]): 0.394
- Fa (RT4; [23]): 0.4179
- CI (RT4; [24]): 0.569
- Fa (RT4; [24]): 0.5893
- CI (RT4; [25]): 0.334
- Fa (RT4; [25]): 0.8967
- Description (RT4; Compound 1 + Vorinostat, molar ratio 1:27): Synergy (0.3-0.7)
- CI (NCI-H358; [26]): 0.642
- Fa (NCI-H358; [26]): 0.7678
- CI (NCI-H358; [27]): 0.464
- Fa (NCI-H358; [27]): 0.9628
- Description (NCI-H358; combination effect, Compound 1 + Vorinostat): Synergy (0.3-0.7)

Molecule: SN-38
- CI (RT4; [28]): 0.322
- Fa (RT4; [28]): 0.2202
- CI (RT4; [29]): 0.554
- Fa (RT4; [29]): 0.2912
- CI (RT4; [30]): 0.621
- Fa (RT4; [30]): 0.4442
- CI (RT4; [31]): 0.472
- Fa (RT4; [31]): 0.6700
- CI (RT4; [32]): 0.554
- Fa (RT4; [32]): 0.7937
- CI (RT4; [33]): 0.310
- Fa (RT4; [33]): 0.9240
- CI (RT4; [34]): 0.064
- Fa (RT4; [34]): 0.9872
- CI (MKN45; [35]): 0.750
- Fa (MKN45; [35]): 0.3061
- CI (MKN45; [36]): 0.390
- Fa (MKN45; [36]): 0.6496
- CI (MKN45; [37]): 0.261
- Fa (MKN45; [37]): 0.8647
- CI (MKN45; [38]): 0.536
- Fa (MKN45; [38]): 0.8972
